The text below walks through data of patent US10183938B2, “Geminal substituted quinuclidine amide compounds as agonists of α-7 nicotonic acetylcholine receptors” (AXOVANT SCIENCES GMBH, priority 2014, dated 2019).

Where a name gives a salt, the structure may show the parent alone.

human α7 nAChRs transiently expressed in Xenopus laevis oocytes, sequence (P36544 23-502 limits assumed): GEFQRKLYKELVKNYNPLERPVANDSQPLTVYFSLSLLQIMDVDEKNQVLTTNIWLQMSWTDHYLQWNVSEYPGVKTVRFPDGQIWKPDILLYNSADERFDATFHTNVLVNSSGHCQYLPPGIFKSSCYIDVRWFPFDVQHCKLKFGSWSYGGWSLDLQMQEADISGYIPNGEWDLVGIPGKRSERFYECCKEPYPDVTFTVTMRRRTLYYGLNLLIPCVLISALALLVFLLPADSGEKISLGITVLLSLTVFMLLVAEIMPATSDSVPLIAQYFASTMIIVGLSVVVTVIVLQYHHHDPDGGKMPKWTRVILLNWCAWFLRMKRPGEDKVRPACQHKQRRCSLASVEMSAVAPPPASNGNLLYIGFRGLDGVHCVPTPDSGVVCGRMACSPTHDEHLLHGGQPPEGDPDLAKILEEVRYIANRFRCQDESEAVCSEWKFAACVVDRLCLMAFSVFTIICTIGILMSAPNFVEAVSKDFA

The target of one assay is human α7 nAChRs transiently expressed in Xenopus laevis oocytes (Homo sapiens (Human), UniProt P36544). As to the kind of experiment: Oocyte electrophysiology screen (TEVC). Type of assay: cell-based. Conditions: 0.01 mM test compound, peak current relative to 0.2 mM ACh. A digest of the protocol:
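Peak inward current from 0.01 mM compound, applied 30 s, is expressed relative to a 5 s 0.2 mM ACh reference response, in triplicate. Recordings used two-electrode voltage clamp at −80 mV in Xenopus oocytes with 90 s OR2 washes.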
As to `Cc1cc2cc(C(=O)N[C@@H]3C4CCN(CC4)C3(C)C)ccc2o1` [(R)-38, (R)—N-(2,2-dimethylquinuclidin-3-yl)-2-methylbenzofuran-5-carboxamide hydrochloride], the “% ACh @ 10 μM Oocyte” value turned out to be 339 % ACh.

Turning to `Cc1nc2cc(C(=O)N[C@@H]3C4CCN(CC4)C3(C)C)ccc2o1` [(R)-32, (R)—N-(2,2-dimethylquinuclidin-3-yl)-2-methylbenzo[d]oxazole-5-carboxamide], the “% ACh @ 10 μM Oocyte” value was found to be 61 % ACh. On the same count and under the same terms, with `CC1(C)[C@@H](NC(=O)c2cc3ccc(F)cc3s2)C2CCN1CC2` [(S)-8, (S)—N-(2,2-dimethylquinuclidin-3-yl)-6-fluorobenzo[b]thiophene-2-carboxamide hydrochloride] the figure was 1 % ACh. Still for that read-out and setting: with `CC1(C)[C@H](NC(=O)c2ccc3occc3n2)C2CCN1CC2` [(R)-37, (R)—N-(2,2-dimethylquinuclidin-3-yl)furo[3,2-b]pyridine-5-carboxamide hydrochloride] the figure was 5 % ACh; with `O=C(NC1C2CCN(CC2)C12CC2)c1ccc2ccsc2c1` (single isomer, unassigned; enantiomer2) [58b, N-(1′-azaspiro[cyclopropane-1,2′-bicyclo[2.2.2]octan]-3′-yl)benzo[b]thiophene-6-carboxamide-enantiomer2], 5 % ACh; with `CC1(C)[C@H](NC(=O)c2cnn3ncccc23)C2CCN1CC2` [(R)-27, (R)—N-(2,2-dimethylquinuclidin-3-yl)pyrazolo[1,5-b]pyridazine-3-carboxamide hydrochloride], 0 % ACh. On the same count and under the same terms, with `CC1(C)[C@@H](NC(=O)c2cc3cccnc3s2)C2CCN1CC2` [(S)-28, (S)—N-(2,2-dimethylquinuclidin-3-yl)thieno[2,3-b]pyridine-2-carboxamide hydrochloride] the figure was 1 % ACh. `Nc1ncc2cc(C(=O)N[C@@H]3C4CCN(CC4)C34CC4)sc2n1` [(R)-149, (R)-2-amino-N-(1′-azaspiro[cyclopropane-1,2′-bicyclo[2.2.2]octan]-3′-yl) thieno[2,3-d]pyrimidine-6-carboxamide hydrochloride]: the “% ACh @ 10 μM Oocyte” value is 195 % ACh. On the same count and under the same terms, with `CC1(C)[C@@H](NC(=O)c2cc3cccc(F)c3s2)C2CCN1CC2` [(S)-4, (S)—N-(2,2-dimethylquinuclidin-3-yl)-7-fluoro-benzo[b]thiophene-2-carboxamide hydrochloride] the figure was 17 % ACh; with `CC1(C)[C@H](NC(=O)c2ccc3occ(Cl)c3c2)C2CCN1CC2` [(R)-41, (R)-3-chloro-N-(2,2-dimethylquinuclidin-3-yl)benzofuran-5-carboxamide hydrochloride], 384 % ACh; with `CC1(C)[C@@H](NC(=O)c2cc3ccc(Cl)cc3s2)C2CCN1CC2` [(S)-12, (S)-6-chloro-N-(2,2-dimethylquinuclidin-3-yl)benzo[b]thiophene-2-carboxamide hydrochloride], 3 % ACh.

As for `Cl.Cn1c(C(=O)N[C@@H]2C3CCN(CC3)C23CC3)cc2ccccc21` [(R)-254, (R)-1-methyl-N-(1′-azaspiro[cyclopropane-1,2′-bicyclo[2.2.2]octan]-3′-yl)-1H-indole-2-carboxamide hydrochloride], the “% ACh @ 10 μM Oocyte” value is 447 % ACh.

For the molecule `Cl.Cn1c(C(=O)N[C@@H]2C3CCN(CC3)C2(C)C)cc2ccccc21` [(R)-221, (R)-N-(2,2-dimethylquinuclidin-3-yl)-1-methyl-1H-indole-2-carboxamide hydrochloride], the “% ACh @ 10 μM Oocyte” value is on record as 188 % ACh. On the same count and under the same terms, with `Cc1nc2ccc(C(=O)N[C@@H]3C4CCN(CC4)C3(C)C)cc2s1` [(R)-35, (R)—N-(2,2-dimethylquinuclidin-3-yl)-2-methylbenzo[d]thiazole-6-carboxamide hydrochloride] the figure was 6 % ACh; with `O=C(N[C@@H]1C2CCN(CC2)C12CC2)c1cc2ccc(N3CCC(F)(F)CC3)cc2s1` [(R)-100, (R)-6-(4,4-difluoropiperidin-1-yl)-N-(1′-azaspiro[cyclopropane-1,2′-bicyclo[2.2.2]octan]-3′-yl)benzo[b]thiophene-2-carboxamide hydrochloride], 1 % ACh. Still for that read-out and setting: with `Cc1nc2ccc(C(=O)N[C@@H]3C4CCN(CC4)C34CC4)cc2s1` [(R)-88, (R)-2-methyl-N-(1′-azaspiro[cyclopropane-1,2′-bicyclo[2.2.2]octan]-3′-yl)benzo[d]thiazole-6-carboxamide hydrochloride] the figure was 133 % ACh.

The target in another assay is human 5-HT3 serotonin receptors (Homo sapiens (Human), UniProt P46098). The experiment in a line: [3H]BRL 43694 competition binding. To be noted: CHO cell membranes, [3H]BRL 43694, Cheng Prusoff; read-out: h-5HT3 Ki.
human 5-HT3 serotonin receptors, sequence (P46098 24-478): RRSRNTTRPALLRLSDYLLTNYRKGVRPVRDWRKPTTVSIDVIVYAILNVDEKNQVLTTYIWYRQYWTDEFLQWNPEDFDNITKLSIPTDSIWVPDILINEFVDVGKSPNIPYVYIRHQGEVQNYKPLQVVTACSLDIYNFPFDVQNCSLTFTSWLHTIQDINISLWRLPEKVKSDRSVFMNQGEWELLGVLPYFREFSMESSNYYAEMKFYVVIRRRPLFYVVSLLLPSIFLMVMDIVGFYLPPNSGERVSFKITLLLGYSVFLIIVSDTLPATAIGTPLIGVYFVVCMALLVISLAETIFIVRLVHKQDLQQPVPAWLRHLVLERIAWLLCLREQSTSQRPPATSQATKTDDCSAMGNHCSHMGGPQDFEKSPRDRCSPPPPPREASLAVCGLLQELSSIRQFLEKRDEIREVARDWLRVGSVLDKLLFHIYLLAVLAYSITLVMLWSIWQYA
For the molecule `CC1(C)[C@H](NC(=O)c2cc3cccc(C4CC4)c3s2)C2CCN1CC2` [(R)-118, (R)-7-cyclopropyl-N-(2,2-dimethylquinuclidin-3-yl)benzo[b]thiophene-2-carboxamide hydrochloride], the inhibition constant (Ki) came to 230 nM.

Turning to `CN(C)c1cccc2cc(C(=O)N[C@@H]3C4CCN(CC4)C34CC4)sc12` [(R)-178, (R)-7-(dimethylamino)-N-(1′-azaspiro[cyclopropane-1,2′-bicyclo[2.2.2]octan]-3′-yl)benzo[b]thiophene-2-carboxamide hydrochloride], the Ki came out at 400 nM.

`COc1ccc2cc(C(=O)N[C@@H]3C4CCN(CC4)C34CC4)sc2c1Cl` [(R)-154, (R)-7-chloro-6-methoxy-N-(1′-azaspiro[cyclopropane-1,2′-bicyclo[2.2.2]octan]-3′-yl)benzo[b]thiophene-2-carboxamide hydrochloride]: the inhibition constant (Ki) worked out at 6200 nM. As for `O=C(N[C@@H]1C2CCN(CC2)C12CC2)c1cc2cccc(-c3ccccc3)c2s1` [(R)-186, (R)-7-phenyl-N-(1′-azaspiro[cyclopropane-1,2′-bicyclo[2.2.2]octan]-3′-yl)benzo[b]thiophene-2-carboxamide hydrochloride], the Ki was 30 nM.

Take `COCc1cccc2cc(C(=O)N[C@@H]3C4CCN(CC4)C34CC4)sc12` [(R)-199, (R)-7-(methoxymethyl)-N-(1′-azaspiro[cyclopropane-1,2′-bicyclo[2.2.2]octan]-3′-yl)benzo[b]thiophene-2-carboxamide hydrochloride]: the Ki turned out to be 580 nM. Same read-out and setting: with `Cc1c(Cl)ccc2cc(C(=O)N[C@@H]3C4CCN(CC4)C34CC4)sc12` [(R)-205, (R)-6-chloro-7-methyl-N-(1′-azaspiro[cyclopropane-1,2′-bicyclo[2.2.2]octan]-3′-yl)benzo[b]thiophene-2-carboxamide hydrochloride] the figure was 2600 nM; with `O=C(N[C@@H]1C2CCN(CC2)C12CC2)c1ccc2cc(Cl)sc2c1` [(R)-203, (R)-2-chloro-N-(1′-azaspiro[cyclopropane-1,2′-bicyclo[2.2.2]octan]-3′-yl)benzo[b]thiophene-6-carboxamide hydrochloride], 2300 nM.

Consider `Cc1ccc2cc(C(=O)N[C@@H]3C4CCN(CC4)C34CC4)sc2c1C#N` [(R)-198, (R)-7-cyano-6-methyl-N-(1′-azaspiro[cyclopropane-1,2′-bicyclo[2.2.2]octan]-3′-yl)benzo[b]thiophene-2-carboxamide hydrochloride], for which the Ki was above 10000 nM. On the same count and under the same terms, with `O=C(N[C@@H]1C2CCN(CC2)C12CC2)c1cc2cccc(CC(F)(F)F)c2s1` [(R)-177, (R)—N-(1′-azaspiro[cyclopropane-1,2′-bicyclo[2.2.2]octan]-3′-yl)-7-(2,2,2-trifluoroethyl)benzo[b]thiophene-2-carboxamide hydrochloride] the figure was 690 nM; with `COc1c(Cl)ccc2cc(C(=O)N[C@@H]3C4CCN(CC4)C34CC4)sc12` [(R)-192, (R)-6-chloro-7-methoxy-N-(1′-azaspiro[cyclopropane-1,2′-bicyclo[2.2.2]octan]-3′-yl)benzo[b]thiophene-2-carboxamide hydrochloride], above 10000 nM. On the same count and under the same terms, with `CC1(C)[C@H](NC(=O)c2cc3ccc(Cl)c(C(F)(F)F)c3s2)C2CCN1CC2` [(R)-111, (R)-6-chloro-N-(2,2-dimethylquinuclidin-3-yl)-7-(trifluoromethyl)benzo[b]thiophene-2-carboxamide hydrochloride] the figure was above 10000 nM. Same read-out and setting: with `COCc1cccc2cc(C(=O)N[C@@H]3C4CCN(CC4)C3(C)C)sc12` [(R)-143, (R)—N-(2,2-dimethylquinuclidin-3-yl)-7-(methoxymethyl)benzo[b]thiophene-2-carboxamide hydrochloride] the figure was 740 nM; with `O=C(N[C@@H]1C2CCN(CC2)C12CC2)c1n[nH]c2ccccc12` [(R)-194, (R)—N-(1′-azaspiro[cyclopropane-1,2′-bicyclo[2.2.2]octan]-3′-yl)-1H-indazole-3-carboxamide hydrochloride], 79 nM.

Take `N#Cc1cccc2cc(C(=O)N[C@@H]3C4CCN(CC4)C34CC4)sc12` [(R)-160, (R)-7-cyano-N-(1′-azaspiro[cyclopropane-1,2′-bicyclo[2.2.2]octan]-3′-yl)benzo[b]thiophene-2-carboxamide hydrochloride]: the inhibition constant (Ki) was determined as 260 nM. Take `O=C(N[C@@H]1C2CCN(CC2)C12CC2)c1cc2cc(F)c(Cl)c(F)c2s1` [(R)-175, (R)-6-chloro-5,7-difluoro-N-(1′-azaspiro[cyclopropane-1,2′-bicyclo[2.2.2]octan]-3′-yl)benzo[b]thiophene-2-carboxamide hydrochloride]: the inhibitory constant (Ki) is above 10000 nM.

With `CC1(C)[C@H](NC(=O)c2cc3cc(F)c(Cl)cc3s2)C2CCN1CC2` [(R)-123, (R)-6-chloro-N-(2,2-dimethylquinuclidin-3-yl)-5-fluorobenzo[b]thiophene-2-carboxamide hydrochloride], the Ki was above 10000 nM. The same measure, in the same setting: with `O=C(N[C@@H]1C2CCN(CC2)C12CC2)c1cc2cccc(-c3nccs3)c2s1` [(R)-181, (R)—N-(1′-azaspiro[cyclopropane-1,2′-bicyclo[2.2.2]octan]-3′-yl)-7-(thiazol-2-yl)benzo[b]thiophene-2-carboxamide hydrochloride] the figure was 83 nM.

The term Ki denotes the dissociation constant of the complex between target and ligand, obtained from inhibition or displacement.
